Laboratory results: patent US20240210412A1, “SULFONYL-TRIAZOLE COMPOUNDS USEFUL AS LIGANDS AND INHIBITORS OF PROSTAGLANDIN REDUCTASE 2” (University of Virginia Patent Foundation, priority 2021, published 2024)

What was measured:
Experiment in all cases: SILAC LC-MS ABPP
Format in all cases: cell-based
Settings in all cases: 25 μM 2 h, live DM93 cells
[1] = target: T1, Q92974 (Homo sapiens, UniProt Q92974)
T1 construct: endogenous in cells; host or cells: DM93 cells (SILAC), live-cell treatment
Procedure, shortened: (§1)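 DM93 melanoma cells under SILAC: light treated with DMSO, heavy with SuTEx ligand (25 μM, 2 h, 37 °C) in serum-free medium, then HHS-475 alkyne probe (100 μM, 2 h, 37 °C). Soluble proteomes clicked to desthiobiotin-PEG3-azide by CuAAC, mixed 1:1, trypsinised, avidin-enriched; probe-modified tyrosine peptides quantified by LC-MS/MS.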

[2] = target: T2, Q969T7 (Homo sapiens, UniProt Q969T7)
T2 construct: endogenous in cells; host or cells: DM93 cells (SILAC), live-cell treatment
T2 sequence (Q969T7 whole entry): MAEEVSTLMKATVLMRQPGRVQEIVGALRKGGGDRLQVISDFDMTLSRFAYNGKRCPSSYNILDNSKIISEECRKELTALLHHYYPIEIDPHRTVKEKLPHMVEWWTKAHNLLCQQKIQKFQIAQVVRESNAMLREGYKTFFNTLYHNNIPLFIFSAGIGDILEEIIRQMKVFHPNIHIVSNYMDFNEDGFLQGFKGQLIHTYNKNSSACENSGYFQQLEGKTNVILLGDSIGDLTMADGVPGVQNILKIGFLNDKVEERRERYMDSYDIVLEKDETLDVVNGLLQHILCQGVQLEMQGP
Procedure, shortened: as §1

[3] = target: T3, O43156 (Homo sapiens, UniProt O43156)
T3 construct: endogenous in cells; host or cells: DM93
T3 sequence (O43156 whole entry): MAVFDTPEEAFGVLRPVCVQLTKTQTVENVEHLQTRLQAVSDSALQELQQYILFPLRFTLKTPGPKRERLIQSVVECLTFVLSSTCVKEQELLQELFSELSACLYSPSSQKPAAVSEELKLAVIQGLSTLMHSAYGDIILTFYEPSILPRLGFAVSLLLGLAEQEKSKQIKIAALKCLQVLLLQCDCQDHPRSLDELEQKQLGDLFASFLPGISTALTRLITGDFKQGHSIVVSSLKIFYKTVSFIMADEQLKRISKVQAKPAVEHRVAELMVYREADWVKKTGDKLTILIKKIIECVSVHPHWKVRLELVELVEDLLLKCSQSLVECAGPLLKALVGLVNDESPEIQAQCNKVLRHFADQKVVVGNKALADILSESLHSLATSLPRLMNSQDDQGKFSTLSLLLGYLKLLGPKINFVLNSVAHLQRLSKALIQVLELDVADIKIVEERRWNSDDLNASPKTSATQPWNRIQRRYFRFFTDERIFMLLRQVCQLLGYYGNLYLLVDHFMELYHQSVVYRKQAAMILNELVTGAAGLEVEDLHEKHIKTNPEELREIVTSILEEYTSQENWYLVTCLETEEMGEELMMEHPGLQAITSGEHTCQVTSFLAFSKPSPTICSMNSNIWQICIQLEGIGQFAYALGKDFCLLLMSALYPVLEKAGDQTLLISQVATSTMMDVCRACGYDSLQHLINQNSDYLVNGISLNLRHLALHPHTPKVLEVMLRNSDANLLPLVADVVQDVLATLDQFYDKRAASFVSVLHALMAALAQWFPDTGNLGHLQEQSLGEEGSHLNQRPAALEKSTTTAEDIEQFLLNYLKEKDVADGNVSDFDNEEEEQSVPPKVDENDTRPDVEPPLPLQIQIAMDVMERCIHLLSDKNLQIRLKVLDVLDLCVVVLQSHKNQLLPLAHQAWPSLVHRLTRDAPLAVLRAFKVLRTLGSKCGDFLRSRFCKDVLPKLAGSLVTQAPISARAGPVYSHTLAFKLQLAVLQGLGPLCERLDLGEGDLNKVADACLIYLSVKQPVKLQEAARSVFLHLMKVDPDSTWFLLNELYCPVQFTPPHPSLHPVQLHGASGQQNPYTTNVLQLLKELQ
Procedure, shortened: as §1

[4] = target: T4, O43390 (Homo sapiens, UniProt O43390)
T4 construct: endogenous in cells; host or cells: DM93
T4 sequence (O43390 whole entry): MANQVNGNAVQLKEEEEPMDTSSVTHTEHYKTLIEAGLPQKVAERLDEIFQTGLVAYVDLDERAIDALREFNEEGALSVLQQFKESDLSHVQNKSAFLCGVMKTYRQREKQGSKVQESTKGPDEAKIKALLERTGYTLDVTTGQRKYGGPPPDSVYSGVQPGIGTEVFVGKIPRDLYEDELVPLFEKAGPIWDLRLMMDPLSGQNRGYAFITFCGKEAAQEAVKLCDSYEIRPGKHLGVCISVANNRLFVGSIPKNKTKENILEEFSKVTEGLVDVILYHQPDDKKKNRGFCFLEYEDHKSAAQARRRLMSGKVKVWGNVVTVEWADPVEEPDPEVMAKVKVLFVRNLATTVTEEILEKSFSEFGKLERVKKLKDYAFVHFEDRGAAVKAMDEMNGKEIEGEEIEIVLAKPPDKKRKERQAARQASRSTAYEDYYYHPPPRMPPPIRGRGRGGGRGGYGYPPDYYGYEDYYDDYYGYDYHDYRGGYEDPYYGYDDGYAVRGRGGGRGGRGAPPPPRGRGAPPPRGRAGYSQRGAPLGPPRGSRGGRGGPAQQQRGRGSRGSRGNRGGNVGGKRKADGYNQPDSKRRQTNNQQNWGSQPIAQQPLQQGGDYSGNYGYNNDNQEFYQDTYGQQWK
Procedure, shortened: as §1

[5] = target: T5, Q9UDY2 (Homo sapiens, UniProt Q9UDY2)
T5 construct: endogenous in cells; host or cells: DM93 cells (SILAC)
Procedure, shortened: as §1

[6] = target: T6, P62263 (Homo sapiens, UniProt P62263)
T6 construct: performing SuTEx compound screening directly in cells; endogenous in cells; host or cells: DM93 cells (SILAC)
Procedure, shortened: as §1

[7] = target: T7, Q92804 (Homo sapiens, UniProt Q92804)
T7 construct: endogenous in cells; host or cells: DM93 cells (SILAC), live-cell treatment
Procedure, shortened: as §1

[8] = target: T8, Q12874 (Homo sapiens, UniProt Q12874)
T8 construct: performing SuTEx compound screening directly in cells; endogenous in cells; host or cells: DM93 cells (SILAC)
Procedure, shortened: as §1

[9] = target: T9, Q13330 (Homo sapiens, UniProt Q13330)
T9 construct: performing SuTEx compound screening directly in cells; endogenous in cells; host or cells: DM93 cells (SILAC), soluble fraction
Procedure, shortened: as §1

[10] = target: T10, Q06203 (Homo sapiens, UniProt Q06203)
T10 construct: performing SuTEx compound screening directly in cells; endogenous in cells; host or cells: DM93 cells (SILAC)
T10 sequence (Q06203 12-517): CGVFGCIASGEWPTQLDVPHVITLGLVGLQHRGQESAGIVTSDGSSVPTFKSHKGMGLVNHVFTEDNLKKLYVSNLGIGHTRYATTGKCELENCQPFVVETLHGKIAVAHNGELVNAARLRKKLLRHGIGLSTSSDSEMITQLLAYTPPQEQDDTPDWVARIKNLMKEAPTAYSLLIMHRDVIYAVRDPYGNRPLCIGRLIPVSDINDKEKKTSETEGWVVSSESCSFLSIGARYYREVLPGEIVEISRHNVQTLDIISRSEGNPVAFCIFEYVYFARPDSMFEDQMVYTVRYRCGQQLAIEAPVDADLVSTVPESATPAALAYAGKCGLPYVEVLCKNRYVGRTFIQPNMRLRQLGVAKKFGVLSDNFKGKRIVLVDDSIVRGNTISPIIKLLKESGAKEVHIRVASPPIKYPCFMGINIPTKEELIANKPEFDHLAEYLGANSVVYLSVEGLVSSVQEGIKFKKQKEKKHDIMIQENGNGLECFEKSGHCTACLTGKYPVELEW
Procedure, shortened: as §1

[11] = target: T11, Q5T6F2 (Homo sapiens, UniProt Q5T6F2)
T11 construct: performing SuTEx compound screening directly in cells; endogenous in cells; host or cells: DM93 cells (SILAC), soluble fraction
T11 sequence (Q5T6F2 whole entry): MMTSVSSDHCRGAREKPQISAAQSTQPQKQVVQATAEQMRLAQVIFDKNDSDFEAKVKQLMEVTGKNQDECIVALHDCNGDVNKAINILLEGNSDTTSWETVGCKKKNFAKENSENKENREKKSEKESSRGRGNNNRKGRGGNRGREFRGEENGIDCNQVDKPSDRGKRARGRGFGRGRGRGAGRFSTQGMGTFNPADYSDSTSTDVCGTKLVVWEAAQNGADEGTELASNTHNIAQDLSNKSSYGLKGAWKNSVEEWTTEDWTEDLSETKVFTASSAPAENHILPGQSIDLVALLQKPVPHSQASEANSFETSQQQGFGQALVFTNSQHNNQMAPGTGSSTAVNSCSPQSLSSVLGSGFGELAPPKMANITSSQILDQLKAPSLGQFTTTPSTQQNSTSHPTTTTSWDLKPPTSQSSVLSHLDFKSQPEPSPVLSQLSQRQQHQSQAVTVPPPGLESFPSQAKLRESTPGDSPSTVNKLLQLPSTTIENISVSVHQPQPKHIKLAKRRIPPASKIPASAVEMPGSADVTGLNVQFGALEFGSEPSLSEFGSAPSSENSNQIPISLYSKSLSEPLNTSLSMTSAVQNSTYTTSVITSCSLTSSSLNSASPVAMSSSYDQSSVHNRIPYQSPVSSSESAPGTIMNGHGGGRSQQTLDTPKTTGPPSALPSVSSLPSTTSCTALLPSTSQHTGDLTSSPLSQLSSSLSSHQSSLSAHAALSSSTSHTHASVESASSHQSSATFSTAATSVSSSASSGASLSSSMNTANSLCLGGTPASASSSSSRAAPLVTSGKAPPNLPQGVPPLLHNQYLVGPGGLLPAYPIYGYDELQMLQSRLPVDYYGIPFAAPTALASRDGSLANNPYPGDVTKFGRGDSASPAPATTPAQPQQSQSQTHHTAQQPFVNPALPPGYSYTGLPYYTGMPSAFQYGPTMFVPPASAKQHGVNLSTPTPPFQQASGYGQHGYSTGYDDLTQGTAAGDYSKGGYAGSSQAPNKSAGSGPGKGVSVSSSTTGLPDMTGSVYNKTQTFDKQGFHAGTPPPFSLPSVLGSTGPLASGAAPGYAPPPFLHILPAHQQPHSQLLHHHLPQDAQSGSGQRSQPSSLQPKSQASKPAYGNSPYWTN
Procedure, shortened: as §1

[12] = target: T12, Q96BR5 (Homo sapiens, UniProt Q96BR5)
T12 construct: endogenous in cells; host or cells: DM93 cells (SILAC), treated live; soluble proteome analysed
T12 sequence (Q96BR5 whole entry): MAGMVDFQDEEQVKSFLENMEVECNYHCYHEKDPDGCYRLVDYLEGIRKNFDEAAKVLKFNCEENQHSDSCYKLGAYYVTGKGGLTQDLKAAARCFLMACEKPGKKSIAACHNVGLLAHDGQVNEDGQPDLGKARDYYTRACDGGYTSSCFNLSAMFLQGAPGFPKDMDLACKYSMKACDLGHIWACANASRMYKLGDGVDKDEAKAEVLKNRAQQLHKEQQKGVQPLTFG
Procedure, shortened: as §1

[13] = target: T13, P46013 (Homo sapiens, UniProt P46013)
T13 construct: endogenous in cells; host or cells: DM93 cells (SILAC)
Procedure, shortened: as §1

[14] = target: T14, Q13428 (Homo sapiens, UniProt Q13428)
T14 construct: performing SuTEx compound screening directly in cells; endogenous in cells; host or cells: DM93 cells (SILAC), soluble fraction
Procedure, shortened: as §1

[15] = target: T15, P20839 (Homo sapiens, UniProt P20839)
T15 construct: endogenous in cells; host or cells: DM93 (SILAC)
T15 sequence (P20839 2-514 limits assumed): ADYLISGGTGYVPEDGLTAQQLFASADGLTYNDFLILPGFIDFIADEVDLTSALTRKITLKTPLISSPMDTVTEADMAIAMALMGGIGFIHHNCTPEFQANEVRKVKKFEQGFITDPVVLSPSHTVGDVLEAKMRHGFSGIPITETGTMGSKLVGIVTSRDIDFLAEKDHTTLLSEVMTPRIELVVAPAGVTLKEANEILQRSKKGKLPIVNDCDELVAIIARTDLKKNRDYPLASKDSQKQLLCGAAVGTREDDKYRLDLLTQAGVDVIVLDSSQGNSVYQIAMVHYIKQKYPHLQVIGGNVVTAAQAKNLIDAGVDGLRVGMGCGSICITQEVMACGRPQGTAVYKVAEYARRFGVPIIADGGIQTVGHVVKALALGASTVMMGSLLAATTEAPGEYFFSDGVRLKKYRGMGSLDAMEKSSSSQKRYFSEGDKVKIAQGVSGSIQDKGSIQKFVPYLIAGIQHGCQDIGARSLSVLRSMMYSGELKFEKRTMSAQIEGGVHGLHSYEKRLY
Procedure, shortened: as §1

[16] = target: T16, P51003 (Homo sapiens, UniProt P51003)
T16 construct: Probe-modified proteins from the soluble fraction were conjugated to a desthiobiotin-azide tag; endogenous in cells; host or cells: DM93 cells (SILAC)
Procedure, shortened: as §1

[17] = target: T17, P12081 (Homo sapiens, UniProt P12081)
T17 construct: endogenous in cells; host or cells: DM93 cells (SILAC)
T17 sequence (P12081 whole entry): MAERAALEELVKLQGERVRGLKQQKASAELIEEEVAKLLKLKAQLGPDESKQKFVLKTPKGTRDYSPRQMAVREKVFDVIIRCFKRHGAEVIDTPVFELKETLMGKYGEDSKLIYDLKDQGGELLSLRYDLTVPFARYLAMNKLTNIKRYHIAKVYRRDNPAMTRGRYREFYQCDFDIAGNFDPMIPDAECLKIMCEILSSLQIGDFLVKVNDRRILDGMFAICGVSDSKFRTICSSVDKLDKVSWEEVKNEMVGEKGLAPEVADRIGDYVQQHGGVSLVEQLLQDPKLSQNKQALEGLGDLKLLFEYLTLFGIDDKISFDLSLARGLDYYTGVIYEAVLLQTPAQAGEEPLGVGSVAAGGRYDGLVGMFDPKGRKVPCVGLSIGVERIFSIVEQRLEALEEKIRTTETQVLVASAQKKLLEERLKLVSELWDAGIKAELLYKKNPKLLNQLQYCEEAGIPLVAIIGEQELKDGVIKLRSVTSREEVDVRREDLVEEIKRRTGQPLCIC
Procedure, shortened: as §1

SMILES: O=C(NC1CC1)c1ccc(S(=O)(=O)n2cncn2)cc1 [HHS-0101, 4-((1H-1,2,4-triazol-1-yl)sulfonyl)-N-cyclopropylbenzamide]
- liganded tyrosine site 894 [1]: HHS0101.Y|HHS0401.Y (tyrosine sites that showed >80% reductions (SR >5) in probe labeling in cells treated with compounds (liganded sites))
- liganded tyrosine site 85 [2]: HHS0101.Y (tyrosine sites that showed >80% reductions (SR >5) in probe labeling in cells treated with compounds (liganded sites))
- liganded tyrosine site 51 [3]: HHS0101.Y|HHS0401.Y|HHS0701.Y (tyrosine sites that showed >80% reductions (SR >5) in probe labeling in cells treated with compounds (liganded sites))

SMILES: O=C(NCC1CC1)c1ccc(S(=O)(=O)n2cncn2)cc1 [HHS-0201, 4-((1H-1,2,4-triazol-1-yl)sulfonyl)-N-(cyclopropylmethyl)benzamide]
- liganded tyrosine site 578 [4]: HHS0201.Y|HHS0301.Y|HHS0401.Y|HHS0701.Y (tyrosine sites that showed >80% reductions (SR >5) in probe labeling in cells treated with compounds (liganded sites))
- liganded tyrosine site 423 [5]: HHS0201.Y|HHS0301.Y (tyrosine sites that showed >80% reductions (SR >5) in probe labeling in cells treated with compounds (liganded sites))
- liganded tyrosine site 72 [6]: HHS0201.Y|HHS0301.Y (tyrosine sites that showed >80% reductions (SR >5) in probe labeling in cells treated with compounds (liganded sites))
- liganded tyrosine site 170 [7]: HHS0201.Y|HHS0301.Y (tyrosine sites that showed >80% reductions (SR >5) in probe labeling in cells treated with compounds (liganded sites))

SMILES: O=C(NC1CCCCC1)c1ccc(S(=O)(=O)n2cncn2)cc1 [HHS-0301, 4-((1H-1,2,4-triazol-1-yl)sulfonyl)-N-cyclohexylbenzamide]
- liganded tyrosine site 139 [8]: HHS0301.Y (tyrosine sites that showed >80% reductions (SR >5) in probe labeling in cells treated with compounds (liganded sites))
- liganded tyrosine site 22 [9]: HHS0301.Y (tyrosine sites that showed >80% reductions (SR >5) in probe labeling in cells treated with compounds (liganded sites))
- liganded tyrosine site 451 [10]: HHS0301.Y (tyrosine sites that showed >80% reductions (SR >5) in probe labeling in cells treated with compounds (liganded sites))

SMILES: O=C(NCc1ccccc1)c1ccc(S(=O)(=O)n2cncn2)cc1 [HHS-0401, 4-((1H-1,2,4-triazol-1-yl)sulfonyl)-N-benzylbenzamide]
- liganded tyrosine site 823 [11]: HHS0401.Y (tyrosine sites that showed >80% reductions (SR >5) in probe labeling in cells treated with compounds (liganded sites))
- liganded tyrosine site 825 [11]: HHS0401.Y (tyrosine sites that showed >80% reductions (SR >5) in probe labeling in cells treated with compounds (liganded sites))
- liganded tyrosine site 72 [12]: HHS0401.Y (tyrosine sites that showed >80% reductions (SR >5) in probe labeling in cells treated with compounds (liganded sites))
- liganded tyrosine site 340 [13]: HHS0401.Y|HHS0701.Y (tyrosine sites that showed >80% reductions (SR >5) in probe labeling in cells treated with compounds (liganded sites))
- liganded tyrosine site 15 [14]: HHS0401.Y (tyrosine sites that showed >80% reductions (SR >5) in probe labeling in cells treated with compounds (liganded sites))
- liganded tyrosine site 233 [15]: HHS0401.Y (tyrosine sites that showed >80% reductions (SR >5) in probe labeling in cells treated with compounds (liganded sites))
- liganded tyrosine site 327 [16]: HHS0401.Y|HHS0701.Y (tyrosine sites that showed >80% reductions (SR >5) in probe labeling in cells treated with compounds (liganded sites))

SMILES: O=C(c1ccc(S(=O)(=O)n2cncn2)cc1)N1CCC(c2ccccc2)CC1 [HHS-0701, (4-((1H-1,2,4-triazol-1-yl)sulfonyl)phenyl)(4-phenylpiperidin-1-yl)methanone]
- liganded tyrosine site 168 [17]: HHS0701.Y (tyrosine sites that showed >80% reductions (SR >5) in probe labeling in cells treated with compounds (liganded sites))
- liganded tyrosine site 172 [17]: HHS0701.Y (tyrosine sites that showed >80% reductions (SR >5) in probe labeling in cells treated with compounds (liganded sites))
